Measurements from the NIST ThermoML archive (doi:10.1016/j.jct.2012.11.004).

Assay: mn = molality of the nth substance listed, in mol/kg
Conditions: 101 kPa, Liquid; for mass density: Vibrating tube method; for speed of sound: Pulse-echo method

O=S(=O)([O-])C(F)(F)F.O=S(=O)([O-])C(F)(F)F.O=S(=O)([O-])C(F)(F)F.[Gd+3] [gadolinium (III) trifluoromethanesulfonate] + CC(=O)N(C)C
Conditions	mass density, 283.15 K [kg/m3]	mass density, 293.15 K [kg/m3]	mass density, 298.15 K [kg/m3]	mass density, 303.15 K [kg/m3]	mass density, 313.15 K [kg/m3]	mass density, 323.15 K [kg/m3]	mass density, 333.15 K [kg/m3]	speed of sound, 298.15 K [m/s]
m1 = 0.02128	959.25	950.04	945.43	940.82	931.58	922.32	913.01	1456.1
m1 = 0.02915	962.65	953.45	948.84	944.24	935	925.73	916.44	1455.9
m1 = 0.03784	966.42	957.21	952.61	948.01	938.78	929.52	920.23	1455.7
m1 = 0.04864	971.16	961.95	957.35	952.76	943.52	934.27	924.97	1455.4
m1 = 0.05951	975.96	966.76	962.16	957.57	948.33	939.08	929.78	1455
m1 = 0.07557	983.07	973.86	969.27	964.67	955.44	946.19	936.89	1454.7
m1 = 0.0965	992.52	983.33	978.73	974.12	964.89	955.64	946.35	1454
m1 = 0.1165	1001.67	992.48	987.87	983.27	974.05	964.79	955.49	1453.6
m1 = 0.1341	1009.86	1000.66	996.06	991.46	982.24	972.98	963.68	1452.9
m1 = 0.1567	1020.47	1011.27	1006.67	1002.09	992.85	983.6	974.31	1452.5
m1 = 0.1757	1029.6	1020.41	1015.81	1011.21	1001.99	992.73	983.44	1451.8

O=S(=O)([O-])C(F)(F)F.O=S(=O)([O-])C(F)(F)F.O=S(=O)([O-])C(F)(F)F.[Gd+3] [gadolinium (III) trifluoromethanesulfonate] + CN(C)C=O
Conditions	mass density, 283.15 K [kg/m3]	mass density, 293.15 K [kg/m3]	mass density, 298.15 K [kg/m3]	mass density, 303.15 K [kg/m3]	mass density, 313.15 K [kg/m3]	mass density, 323.15 K [kg/m3]	mass density, 333.15 K [kg/m3]	speed of sound, 298.15 K [m/s]
m1 = 0.01967	966.39	956.87	952.11	947.35	937.76	928.14	918.46	1455.8
m1 = 0.02703	969.53	960.01	955.25	950.48	940.9	931.28	921.61	1455.2
m1 = 0.03489	972.9	963.38	958.61	953.84	944.26	934.64	924.97	1454.5
m1 = 0.04531	977.36	967.83	963.07	958.3	948.72	939.1	929.43	1453.6
m1 = 0.05527	981.65	972.13	967.36	962.59	953.01	943.4	933.75	1452.8
m1 = 0.07019	988.17	978.65	973.89	969.1	959.52	949.91	940.24	1451.5
m1 = 0.09028	997.06	987.52	982.77	977.97	968.39	958.77	949.11	1449.4
m1 = 0.108	1004.97	995.43	990.66	985.88	976.29	966.68	957.02	1448
m1 = 0.1249	1012.67	1003.13	998.36	993.58	983.99	974.37	964.71	1446.3
m1 = 0.146	1022.39	1012.83	1008.05	1003.28	993.69	984.07	974.42	1443.5
m1 = 0.1634	1030.52	1020.96	1016.18	1011.39	1001.8	992.19	982.54	1441.7
